Earlier results as cited in patent publication US20020132751A1, “Detergent compositions” (Unilever Home & Personal Care USA, Division of Conopco, Inc., priority 2000, published 2002).

Details: grams of solid to form a saturated solution in 100 grams of water at 20° C.

Structure (SMILES)	Water Solubility (g/100 g)
O=P(O)(O)OP(=O)(O)OP(=O)(O)O [Sodium tripolyphosphate anhydrous]	15 g/100 g
O=BO[O-].[Na+] [Sodium perborate anhydrous]	3.7 g/100 g
